Reference: PubChem BioAssay AID489024 (Sanford-Burnham Center for Chemical Genomics, 2010)
pEC50: −log10 of the molar value. Active and inactive are the calls of the source.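 The calls were made as follows: active = compounds whose mean EC50, the dose giving half the maximal reporter activation, is at or below a set limit; inactive = the rest.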

The compounds below were run against CHO-CHOP luciferase reporter, UPR activation, luminescence (assay: CHOP reporter induction, apoptotic UPR branch – CHO-CHOP cells, luciferase luminescence, confirmation (AID 489024);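 also: compounds added alone to reporter cells with no tunicamycin stress co-treatment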).

Compound | pEC50 | EC50
Cc1ccn2cc(-c3ccc(O)c(O)c3)nc2c1 | 5.27 | 
O=C(Cn1ncc(Cl)c(Cl)c1=O)c1ccc2c(c1)OCCO2 | 4.87 | 
CC(C)C(=O)N1CCN(c2ccc(NC(=O)c3ccc([N+](=O)[O-])o3)cc2)CC1 | 5.79 | 
CC1CCC/C=C/C(=O)c2c(O)cc(O)cc2CC(=O)O1 (configuration not stated) |  | > 80 µM (inactive)
COc1ccccc1-c1cc(C(F)(F)F)nc(S(=O)(=O)CCCC(=O)N2CCCCC2C)n1 (configuration not stated) | 5.11 | 
CCc1ccc2c(c1)C1(NN=C(c3ccccc3)S1)C(=O)N2 (configuration not stated) | 5.47 | 
Cc1cccc(/C=C/C(=O)c2ccc([N+](=O)[O-])o2)c1 | 5.13 | 
COc1cc(/C=C2\C(=O)ON=C2c2ccc(Cl)cc2)ccc1O | 4.93 | 
O=C1Nc2ccc(Br)cc2/C1=N/N=C/C1=C(N2CCOCC2)C(=C\c2ccccc2)/CC1 |  | > 80 µM (inactive)
Cc1cccc(OCCN2CSC(=S)N(C)C2)c1 |  | > 80 µM (inactive)
O=C(/C(=N/N=C/c1ccc(O)c(O)c1)c1ccccc1)c1ccccc1 | 5.10 | 
O=C(COc1ccc(/C=N/NC(=O)c2cc3ccccc3o2)cc1Br)Nc1ccccc1 | 5.42 | 
Cc1nn(Cc2c(Cl)cccc2Cl)c(C)c1NC(=O)c1cn(-c2ccccc2)nc1-c1ccccc1 | 5.13 | 
Cc1ccc2cccc(NS(=O)(=O)c3ccccc3)c2n1 | 5.45 | 
O=C1NC(=O)N(c2ccccc2)C(=O)/C1=C/C=C/c1ccco1 | 5.01 | 
Cc1[nH]c2ccccc2c1CN1CCC(Cc2ccccc2)CC1 | 4.95 | 
Cc1ccc(-c2nc(N/N=C/c3cccc([N+](=O)[O-])c3)c3ccccc3n2)cc1 |  | inactive
CC1=NOC(=O)/C1=C/c1ccc(-c2ccc(Cl)cc2)o1 | 5.00 | 
Cc1ccc(C)c2sc(N3CCN(C(=O)c4ccc([N+](=O)[O-])o4)CC3)nc12 | 4.72 | 
Nc1cccc(-c2nc3cc(S(=O)(=O)c4ccc5oc(-c6cccc(N)c6)nc5c4)ccc3o2)c1 |  | inactive
CCOc1ccc(N2C(=O)/C(=C\c3cccs3)C(=O)NC2=S)cc1 | 5.06 | 
Cc1cccnc1Nc1nc(-c2ccccn2)cs1 | 6.19 | 

Compound | pEC50 | EC50
COc1ccc(-c2cc(=O)oc3c(C)c(OC(=O)c4cccs4)ccc23)cc1 |  | inactive
Cc1nc([N+](=O)[O-])c(Br)n1CC(=O)c1ccc(Cl)cc1 |  | > 80 µM (inactive)
S=c1[nH]nc(-c2cc(-c3ccccc3)n[nH]2)n1/N=C/C(Br)=C/c1ccccc1 | 5.11 | 
Cc1cc(C(=O)c2ccc(Cl)cc2)c(NC(=O)CCl)s1 | 4.79 | 
C=CCN=c1scc(C)n1/N=C/c1ccc(O)c(O)c1 | 5.52 | 
O=C(NCc1cccnc1)/C(=C/c1ccc(-c2ccc(Cl)cc2)o1)S(=O)(=O)c1ccccc1 | 5.21 | 
Cc1ccc(C)c(N=Cc2c(O)c3ccccc3oc2=O)c1 | 5.20 | 
COc1ccccc1N1CCN(Cc2ccc(O)c3ncccc23)CC1 | 4.83 | 
CCOC(=O)C(CC)(CC)C(=O)/C=C/c1cccc(Br)c1 | 4.93 | 
Cc1ccccc1CS(=O)(=O)c1ncc(Cl)c(C(=O)Nc2ccc(F)cc2)n1 |  | > 80 µM (inactive)
CC(C)c1nnc(NC(=O)CCS(=O)(=O)c2nc(-c3cccs3)cc(C(F)(F)F)n2)s1 | 4.87 | 
COc1cc(/C=C(/C#N)c2nc3ccccc3[nH]2)ccc1OCC(=O)Nc1ccccc1C(C)C | 5.08 | 
CC(=O)N(\C=C/C=C/C=C1\Sc2ccccc2C1=O)c1ccccc1 |  | > 80 µM (inactive)
COC(=O)c1ccc(-n2c(C)cc(C(=O)CCl)c2C)cc1 | 5.34 | 
COc1cccc2sc(Nc3nc(C)c(C(C)=O)s3)nc12 | 4.83 | 
COc1cc(/C=C/[N+](=O)[O-])ccc1O |  | > 80 µM (inactive)
CCOC(=O)N1CCN(S(=O)(=O)c2ccc(C(=O)Nc3nc4c(s3)CC(C)CC4)cc2)CC1 (configuration not stated) |  | > 80 µM (inactive)
Cc1ccc(-c2nn(-c3ccccc3)cc2C=C2C(=O)CC(C)(C)CC2=O)cc1 | 4.88 | 
COc1cccc(/C=N/Nc2nc(Nc3ccccc3)nc(-n3nc(C)cc3C)n2)c1O | 5.37 | 
Cc1ccc(-c2nc(NC(=O)c3nn(C)cc3[N+](=O)[O-])sc2C)cc1 | 5.07 | 
O=C1NC(=S)NC(=O)C1=Cc1ccc(Br)s1 |  | > 80 µM (inactive)
O=C(CN(c1cccc(C(F)(F)F)c1)S(=O)(=O)c1ccc(Cl)c([N+](=O)[O-])c1)NCc1ccc(F)cc1 | 4.93 | 

Compound | pEC50 | EC50
Cc1cccc(Cn2cc(/C=C/[N+](=O)[O-])c3ccccc32)c1 | 5.11 | 
CCOc1ccccc1-n1c(SCC(=O)Nc2ccc(CC)cc2)nc2n[nH]c(C)c2c1=N | 5.14 | 
CCc1ccccc1NC(=S)N=Nc1c(O)n(C)c2ccc(S(=O)(=O)N3CCOCC3)cc12 |  | > 80 µM (inactive)
O=C(Nc1ccc(N2CCOCC2)cc1)c1ccc([N+](=O)[O-])o1 | 5.33 | 
COc1ccc(N=Nc2ccc(O)c3ncccc23)cc1 | 5.10 | 
COc1ccc(-c2nc(-c3ccccc3)nc(Cl)c2C#N)cc1 | 4.87 | 
C/C(CC(C)(C)C1CCCCC1)=N\NC(N)=S | 4.92 | 
COc1ccccc1N=c1oc2c(OC)cccc2cc1C(=O)NCc1ccco1 |  | > 80 µM (inactive)
CC(C)c1ccc(N2C(=O)NC(=O)/C(=C\C=C\c3ccco3)C2=O)cc1 | 5.04 | 
COc1ccccc1C(=O)NC(=S)NNC(=O)c1sc2ccccc2c1Cl |  | inactive
Cn1nc(C(F)(F)F)c(/C=N/OC(=O)c2ccccc2)c1SCc1ccccc1Cl |  | inactive
COC(=O)[C@@H]1[C@@H](C#N)C2(c3ccccc3-c3ccccc32)N(c2ccc(Cl)cc2)N1C#N | 4.89 | 
O=S(=O)(c1ccc(Cl)cc1)c1snnc1-c1ccccc1 | 4.95 | 
CN(c1ccccc1)S(=O)(=O)c1cccc(C(=O)NCCc2ccc(O)c(O)c2)c1 | 5.12 | 
CCOC(=O)c1cnc(Nc2nc3ccccc3o2)nc1CSC(=S)N(CC)CC | 6.04 | 
O=C(/C=C/c1ccc(O)c(O)c1)c1ccccc1O | 5.33 | 
O=C(/C=C/Sc1ccc(C(F)(F)F)cn1)c1ccccc1 | 5.11 | 
COC(=O)c1c(NC(=O)CC2Nc3ccccc3NC2=O)sc(C)c1C (configuration not stated) |  | inactive
Cn1cc(/C=C2\SC(=O)NC2=S)c2ccccc21 |  | > 80 µM (inactive)
Cc1cccc(N=Nc2ccc(O)c3ncccc23)c1 | 5.14 | 
Cc1nc([N+](=O)[O-])c(Br)n1CC(=O)c1ccc(Br)cc1 |  | > 80 µM (inactive)
O=C(/C(=C/c1ccc(Cl)cc1)c1nc2ccccc2[nH]1)c1ccccc1 | 5.18 | 

Compound | pEC50 | EC50
Cc1nn(-c2ccccc2)c(C)c1/C=N/NC(=O)CSc1nc2ccccc2c(=O)n1-c1ccc(Br)cc1 | 5.01 | 
O=C(Nc1cccc(-c2nc3cccnc3s2)c1)C1c2ccccc2Oc2ccccc21 | 5.16 | 
C/C(=N\NC(=O)c1cc(-c2cccs2)nc2ccccc12)c1ccccn1 | 5.30 | 
COc1ccc(NC(=O)C(=O)N/N=C\c2ccc(CNC(=O)C(=O)Nc3ccc(C)c(C)c3)o2)c(OC)c1 | 5.08 | 
CC1(C)CC(=O)C2=C(C1)Oc1nc3ccccc3cc1C2C(C#N)C#N (configuration not stated) |  | > 80 µM (inactive)
CCCCC(CC)CN=C(N)NC(N)=NCCCCCCN=C(N)NC(N)=NCC(CC)CCCC (configuration not stated) |  | > 80 µM (inactive)
O=C1/C(=C/c2ccccc2[N+](=O)[O-])COc2ccccc21 | 5.21 | 
CCCCCCCCCn1c2c(c(=N)c3c1CCC3)CCC2 |  | > 80 µM (inactive)
Cc1ccc(-c2nnc(-c3ccc(NC(=O)c4cccs4)cc3)o2)cc1 | 4.80 | 
CCOc1ccc(-c2nnc(SCC(=O)Nc3ccc4c(c3)c3ccccc3n4CC)n2N)cc1 | 4.90 | 
O=C(/C(=C/c1cccc(Cl)c1)c1nc2ccccc2[nH]1)c1ccccc1 | 5.18 | 
Cc1cc(SCC(=O)N/N=C/c2ccc(O)c(O)c2)nc2ccccc12 | 4.74 | 
CCOc1cc(/C=N/NC(N)=S)cc(Br)c1OCc1ccccc1C |  | inactive
CCOc1cc(/C=C2/C(=O)ON=C2C)ccc1OCc1ccccc1F | 4.80 | 
O=C(Nc1ccc(O)c2c(=O)cc(-c3cccc(Cl)c3)oc12)c1ccccc1Cl |  | inactive
S=C1SCN(Cc2ccco2)CN1Cc1ccco1 | 4.94 | 
Oc1ccc(-c2nc(-c3ccc(O)c(O)c3)cs2)cc1 | 5.05 | 
O=C(NCc1cccnc1)/C(=C/c1ccc(-c2cccc(Cl)c2)o1)S(=O)(=O)c1ccccc1 | 4.98 | 
Cn1nnnc1Sc1ncnc2scc(-c3ccc([N+](=O)[O-])cc3)c12 | 4.91 | 
CCn1c(O)c(C2=c3ccccc3=NC2=O)c2cc(Br)ccc21 | 4.81 | 
CSC(=S)N/N=C(\C)c1ccccc1 | 4.91 | 
CCOC(=O)c1cnc(-n2nc(C)cc2C)nc1Nc1ccc(N(C)C)cc1 | 4.78 | 

Compound | pEC50 | EC50
CCCn1c(CC)nc([N+](=O)[O-])c1S(=O)(=O)c1ccccc1 |  | > 80 µM (inactive)
O=[N+]([O-])c1ccc(Sc2nnnn2-c2ccccc2)nc1 |  | > 80 µM (inactive)
O=C(C=C=Nc1ccccc1)C(=O)N=C=Cc1ccccc1 | 5.24 | 
O=C(/C(=C/c1ccc(Cl)cc1)c1nc2ccccc2[nH]1)c1cccs1 | 5.34 | 
Oc1c(Cl)cc(CN2CCOCC2)c2cccnc12 | 5.23 | 
Cc1ccc(/C=C/C(=O)c2ccc([N+](=O)[O-])o2)cc1 | 5.19 | 
COC(=O)c1ccc(C(=O)OC)c(NC(=O)CSc2cccc[n+]2[O-])c1 |  | inactive
CC(C)c1ccc(N2C(=O)CC(Sc3nc4ccccc4o3)C2=O)cc1 (configuration not stated) | 4.80 | 
COc1ccc(N2CCN(Cc3cc(=O)oc4cc(-c5ccccc5)c(O)cc34)CC2)cc1 |  | > 80 µM (inactive)
O=C(Cn1cc(/C=C\[N+](=O)[O-])c2ccccc21)Nc1ccccc1 | 5.12 | 
Cc1cc(C)c(C(CC(=O)c2cccs2)C(C#N)C#N)c(C)c1 (configuration not stated) | 4.85 | 
Cc1ccc(N2C(=O)NC(=O)/C(=C/c3cnn(-c4ccc(C)cc4)c3)C2=O)cc1 | 4.77 | 
O=C(CSc1ccc2ccccc2c1)NCCc1ccc(O)c(O)c1 | 5.07 | 
O=C1NC(=O)N(Cc2ccccc2)C(=O)/C1=C\C=C\c1ccco1 |  | > 80 µM (inactive)
COc1cc2nc(=S)n3[nH]c(CCn4nc(C)cc4C)nc3c2cc1OC | 5.41 | 
Cn1c2ccccc2c2cc(/C=N/NC(=O)c3cc(O)ccc3O)ccc21 | 5.27 | 
CCOc1cc(/C=C2/C(=N)N3C=CSC3=NC2=O)ccc1OCCCOc1ccccc1C |  | inactive
COc1ccc(-c2csc3nc(-c4ccc(C)cc4)oc(=O)c23)cc1OC |  | > 80 µM (inactive)
COC(=O)c1cc(=O)n(Cc2ccco2)c(=Nc2ccc(F)c(Cl)c2)s1 | 4.77 | 
